Laboratory results: PubChem BioAssay AID1259407 (Chemical Carcinogenesis Research Information System (CCRIS), 2018)
Active and inactive are the calls of the source. No rule for the calls is given here.

System: CCRIS mutagenicity, Ames/micronucleus/aberration tests
Test: CCRIS mutagenicity studies
[1] = Test System: AMES SALMONELLA TYPHIMURIUM, Strain/Indicator: TA98, Metabolic Activation: NONE, Method: PREINCUBATION
[2] = Test System: AMES SALMONELLA TYPHIMURIUM, Strain/Indicator: TA98, Metabolic Activation: NONE, Method: STANDARD PLATE
[3] = Test System: AMES SALMONELLA TYPHIMURIUM, Strain/Indicator: TA100, Metabolic Activation: NONE, Method: PREINCUBATION
[4] = Test System: AMES SALMONELLA TYPHIMURIUM, Strain/Indicator: TA100, Metabolic Activation: NONE, Method: STANDARD PLATE
[5] = Test System: AMES SALMONELLA TYPHIMURIUM, Strain/Indicator: TA1535, Metabolic Activation: NONE, Method: PREINCUBATION
[6] = Test System: AMES SALMONELLA TYPHIMURIUM, Strain/Indicator: TA1535, Metabolic Activation: NONE, Method: STANDARD PLATE
[7] = Test System: AMES SALMONELLA TYPHIMURIUM, Strain/Indicator: TA1537, Metabolic Activation: NONE, Method: PREINCUBATION
[8] = Test System: AMES SALMONELLA TYPHIMURIUM, Strain/Indicator: TA1538, Metabolic Activation: NONE, Method: PREINCUBATION
[9] = Test System: AMES SALMONELLA TYPHIMURIUM, Strain/Indicator: TA1535, Metabolic Activation: RAT, LIVER, S-9, KC500 OR PHENOBARBITAL, Method: LIQUID SUSPENSION

`C[Si](C)(C)Cl` was tested, and the mutagenic call (Test System: AMES SALMONELLA TYPHIMURIUM, Strain/Indicator: TA98, Metabolic Activation: HAMSTER, LIVER, S-9, AROCLOR 1254, Method: PREINCUBATION) was “inactive; negative”, the mutagenic call [1] was “inactive; negative” and the mutagenic call [2] was “inactive; negative”. The mutagenic call (Test System: AMES SALMONELLA TYPHIMURIUM, Strain/Indicator: TA98, Metabolic Activation: RAT LIVER S-9, AROCLOR 1254, Method: STANDARD PLATE) was “inactive; negative”, the mutagenic call (Test System: AMES SALMONELLA TYPHIMURIUM, Strain/Indicator: TA98, Metabolic Activation: RAT, LIVER, S-9, AROCLOR 1254, Method: PREINCUBATION) was “inactive; negative” and the mutagenic call (Test System: AMES SALMONELLA TYPHIMURIUM, Strain/Indicator: TA100, Metabolic Activation: HAMSTER, LIVER, S-9, AROCLOR 1254, Method: PREINCUBATION) was “inactive; negative”. The mutagenic call [3] was “inactive; negative”, the mutagenic call [4] was “inactive; negative” and the mutagenic call (Test System: AMES SALMONELLA TYPHIMURIUM, Strain/Indicator: TA100, Metabolic Activation: RAT LIVER S-9, AROCLOR 1254, Method: STANDARD PLATE) was “inactive; negative”. The mutagenic call (Test System: AMES SALMONELLA TYPHIMURIUM, Strain/Indicator: TA100, Metabolic Activation: RAT, LIVER, S-9, AROCLOR 1254, Method: PREINCUBATION) was “inactive; negative”, the mutagenic call (Test System: AMES SALMONELLA TYPHIMURIUM, Strain/Indicator: TA1535, Metabolic Activation: HAMSTER, LIVER, S-9, AROCLOR 1254, Method: PREINCUBATION) was “inactive; negative” and the mutagenic call [5] was “inactive; negative”. For the same compound, the mutagenic call [6] was “inactive; negative”, the mutagenic call (Test System: AMES SALMONELLA TYPHIMURIUM, Strain/Indicator: TA1535, Metabolic Activation: RAT LIVER S-9, AROCLOR 1254, Method: STANDARD PLATE) was “inactive; negative” and the mutagenic call (Test System: AMES SALMONELLA TYPHIMURIUM, Strain/Indicator: TA1535, Metabolic Activation: RAT, LIVER, S-9, AROCLOR 1254, Method: PREINCUBATION) was “inactive; negative”. The mutagenic call (Test System: AMES SALMONELLA TYPHIMURIUM, Strain/Indicator: TA1537, Metabolic Activation: HAMSTER, LIVER, S-9, AROCLOR 1254, Method: PREINCUBATION) was “inactive; negative”, the mutagenic call [7] was “inactive; negative” and the mutagenic call (Test System: AMES SALMONELLA TYPHIMURIUM, Strain/Indicator: TA1537, Metabolic Activation: NONE, Method: STANDARD PLATE) was “inactive; negative”. The mutagenic call (Test System: AMES SALMONELLA TYPHIMURIUM, Strain/Indicator: TA1537, Metabolic Activation: RAT LIVER S-9, AROCLOR 1254, Method: STANDARD PLATE) was “inactive; negative”, the mutagenic call (Test System: AMES SALMONELLA TYPHIMURIUM, Strain/Indicator: TA1537, Metabolic Activation: RAT, LIVER, S-9, AROCLOR 1254, Method: PREINCUBATION) was “inactive; negative” and the mutagenic call (Test System: AMES SALMONELLA TYPHIMURIUM, Strain/Indicator: TA1538, Metabolic Activation: HAMSTER, LIVER, S-9, AROCLOR 1254, Method: PREINCUBATION) was “inactive; negative”. The mutagenic call [8] was “inactive; negative”, the mutagenic call (Test System: AMES SALMONELLA TYPHIMURIUM, Strain/Indicator: TA1538, Metabolic Activation: NONE, Method: STANDARD PLATE) was “inactive; negative” and the mutagenic call (Test System: AMES SALMONELLA TYPHIMURIUM, Strain/Indicator: TA1538, Metabolic Activation: RAT LIVER S-9, AROCLOR 1254, Method: STANDARD PLATE) was “inactive; negative”. The mutagenic call (Test System: AMES SALMONELLA TYPHIMURIUM, Strain/Indicator: TA1538, Metabolic Activation: RAT, LIVER, S-9, AROCLOR 1254, Method: PREINCUBATION) was “inactive; negative”, the mutagenic call (Test System: E. COLI, Strain/Indicator: P3078 POLA, Metabolic Activation: NONE, Method: SPOT TEST) was “inactive; negative” and the mutagenic call (Test System: E. COLI, Strain/Indicator: P3078 POLA, Metabolic Activation: RAT LIVER S-9, AROCLOR 1254, Method: SPOT TEST) was “inactive; negative”. For the same compound, the mutagenic call (Test System: E. COLI, Strain/Indicator: W3110, Metabolic Activation: NONE, Method: SPOT TEST) was “inactive; negative”, the mutagenic call (Test System: E. COLI, Strain/Indicator: W3110, Metabolic Activation: RAT LIVER S-9, AROCLOR 1254, Method: SPOT TEST) was “inactive; negative” and the mutagenic call (Test System: MOUSE LYMPHOMA, Strain/Indicator: L5178Y (TK+/TK-), Metabolic Activation: RAT, LIVER, S-9, AROCLOR 1254, Method: SUSPENSION/PLATE) was “inactive; negative. reevaluation of results: negative”. The mutagenic call (Test System: MOUSE LYMPHOMA, Strain/Indicator: L5178Y (TK+/TK-), Metabolic Activation: RAT, LIVER, S-9, Method: SUSPENSION/PLATE) was “inactive; negative”.
`CNC(=O)C[C@@H](N)C(=O)N[C@@H](C(=O)N[C@@H]1C(=O)N2[C@@H]1SC(C)(C)[C@@H]2C(=O)O)c1ccc(O)cc1` was tested, and the mutagenic call [1] was “inactive; negative”, the mutagenic call (Test System: AMES SALMONELLA TYPHIMURIUM, Strain/Indicator: TA98, Metabolic Activation: RAT, LIVER, S-9, PHENOBARBITAL AND BENZOFLAVONE, Method: PREINCUBATION) was “inactive; negative” and the mutagenic call [3] was “inactive; negative”. For the same compound, the mutagenic call (Test System: AMES SALMONELLA TYPHIMURIUM, Strain/Indicator: TA100, Metabolic Activation: RAT, LIVER, S-9, PHENOBARBITAL AND BENZOFLAVONE, Method: PREINCUBATION) was “inactive; negative”, the mutagenic call [5] was “inactive; negative” and the mutagenic call (Test System: AMES SALMONELLA TYPHIMURIUM, Strain/Indicator: TA1535, Metabolic Activation: RAT, LIVER, S-9, PHENOBARBITAL AND 5,6 BENZOFLAVONE, Method: PREINCUBATION) was “inactive; negative”. The mutagenic call [7] was “inactive; negative”, the mutagenic call (Test System: AMES SALMONELLA TYPHIMURIUM, Strain/Indicator: TA1537, Metabolic Activation: RAT, LIVER, S-9, PHENOBARBITAL AND 5,6 BENZOFLAVONE, Method: PREINCUBATION) was “inactive; negative” and the mutagenic call [8] was “inactive; negative”. The mutagenic call (Test System: AMES SALMONELLA TYPHIMURIUM, Strain/Indicator: TA1538, Metabolic Activation: RAT, LIVER, S-9, PHENOBARBITAL AND 5,6 BENZOFLAVONE, Method: PREINCUBATION) was “inactive; negative”, the mutagenic call (Test System: E. COLI, Strain/Indicator: WP2 UVRA, Metabolic Activation: NONE, Method: PREINCUBATION) was “inactive; negative” and the mutagenic call (Test System: E. COLI, Strain/Indicator: WP2 UVRA, Metabolic Activation: RAT, LIVER, S-9, PHENOBARBITAL AND 5,6 BENZOFLAVONE, Method: PREINCUBATION) was “inactive; negative”.
For `Oc1ccc2ncccc2c1`, the mutagenic call [4] was “inactive; negative” and the mutagenic call (Test System: AMES SALMONELLA TYPHIMURIUM, Strain/Indicator: TA100, Metabolic Activation: RAT, LIVER, S-9, AROCLOR 1254 (10% OR 20%), Method: STANDARD PLATE) was “inactive; negative”.
With `CCCN(N=O)/C(N)=N/[N+](=O)[O-]` the mutagenic call [3] was “active; positive”, the mutagenic call (Test System: AMES SALMONELLA TYPHIMURIUM, Strain/Indicator: TA100, Metabolic Activation: RAT, LIVER, S-9, KC500 OR PHENOBARBITAL, Method: LIQUID SUSPENSION) was “active; positive” and the mutagenic call [5] was “active; positive”. For the same compound, the mutagenic call [6] was “active; positive”, the mutagenic call [9] was “active; positive” and the mutagenic call (Test System: AMES SALMONELLA TYPHIMURIUM, Strain/Indicator: YG7104, Metabolic Activation: NONE, Method: PREINCUBATION) was “active; positive”. For the same compound, the mutagenic call (Test System: AMES SALMONELLA TYPHIMURIUM, Strain/Indicator: YG7108, Metabolic Activation: NONE, Method: PREINCUBATION) was “active; positive”, the mutagenic call (Test System: AMES SALMONELLA TYPHIMURIUM, Strain/Indicator: YG7112, Metabolic Activation: NONE, Method: PREINCUBATION) was “active; positive” and the mutagenic call (Test System: AMES SALMONELLA TYPHIMURIUM, Strain/Indicator: YG7113, Metabolic Activation: NONE, Method: PREINCUBATION) was “active; positive”.
`CC(C)(Br)C(=O)NCc1ccccc1` was tested, and the mutagenic call (Test System: AMES SALMONELLA TYPHIMURIUM, Strain/Indicator: TA100, Metabolic Activation: MOUSE, LIVER, S-9, AROCLOR 1254, Method: STANDARD PLATE) was “inactive; negative” and the mutagenic call [4] was “inactive; negative”.
`CC(=O)OCCN(CCOC(C)=O)c1ccc([N+](=O)[O-])c2c(NCCCN(C)C)c3ccccc3nc12` was tested, and the mutagenic call [2] was “active; positive” and the mutagenic call [4] was “active; positive”.
In the case of `CN(CCCC(=O)O)N=O`, the mutagenic call [9] is reported as “active; positive”.
